# Reference: paper PMC7174022 (Dalton transactions (Cambridge, England : 2003), 2020)
# How the values were obtained:
# [1] = system: the cell lines investigated
# [2] = system: PANC-1 cells (human pancreatic carcinoma); type: cell-based; conditions: read-out: IC50 PANC-1
# [3] = system: HFF-1 cells (normal human foreskin fibroblast); type: cell-based; conditions: read-out: IC50 HFF-1
# [4] = system: DU-145 cells (metastatic prostate carcinoma); type: cell-based, human; conditions: read-out: IC50 DU-145
# [5] = system: Hep G2 cells (human hepatocellular carcinoma); type: cell-based; conditions: read-out: IC50 Hep G2
# [6] = system: DU-145 cells; type: cell-based, human
# [7] = system: MCF-7 cells (breast adenocarcinoma); type: cell-based, human; conditions: read-out: IC50 MCF-7
# [8] = system: MIA PaCa 2 cells (human pancreatic carcinoma); type: cell-based; conditions: read-out: IC50 MIA PaCa 2
# [9] = system: microtubule network in MCF-7 cells; type: cell-based, human
smiles,measurement,setting,value
"OCCN(CCO)Cc1ccccn1 [Complex L1, bis(2-hydroxyethyl)pyridylmethylamine]",cytotoxicity of the ligands (in words),[1],did not exhibit any cytotoxicity
O=C1[O][Pt]2([NH][C@@H]3CCCC[C@H]3[NH]2)[O]C1=O [Oxaliplatin],IC50,[2],3.1 ± 0.2 µM
same,IC50,[3],7 ± 0.6 µM
same,IC50,[4],4.5 ± 0.3 µM
same,IC50,[5],9.8 ± 0.3 µM
same,increase in cell killing efficiency in presence of verapamil,[6],8 times
same,IC50,[7],0.6 ± 0.1 µM
same,IC50,[8],5.7 ± 0.2 µM
"COc1cc2c(c(OC)c1OC)-c1ccc(OC)c(=O)cc1[C@@H](NC(C)=O)CC2 [colchicine, Colchicine]",organization of microtubule network (positive control),[9],disruption of microtubule network
